In patent US20050014811A1, “Substituted benzimidazole compounds and their use for the treatment of cancer” (Aventis Pharma S.A., priority 2001, published 2005):

What was measured:
CDK4/CyclinD1 = CDK4/CyclinD1 (Homo sapiens, UniProt P11802); assay: CDK4/CyclinD1 Flashplate assay, 96-well format, biotinylated-Rb peptide substrate; format: biochemical
Procedure, shortened: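 Biotinylated Rb peptide bound to streptavidin Flashplate; CDK4/CyclinD1 (70 ng/well) preincubated 30 min on ice with compound at 10, 3, 1, 0.3 and 0.1 μM final. Reaction with 1 μM cold ATP plus 33P-ATP for 45 min at RT; incorporated 33P counted, duplicates.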

CDK2/CyclinE = CDK2/CyclinE (Homo sapiens, UniProt P24941); assay: CDK2/CyclinE Flashplate assay, 96-well format, biotinylated-Rb peptide substrate; format: biochemical
Protocol: This is a CDK2/CyclinE kinase assay in a 96-well Streptavidin-coated Flashplate with a biotinylated-Rb peptide substrate.
Each point is tested in duplicate
Biotinylated-Rb: Biotin-[…]-OH
• 1. Prepare substrate: 1 mg/ml solution made fresh in PBS. • 2. Add 4 μg per well to the Flashplate. • 3. Incubate for 2 hours at RT. • 4. From 10 mM inhibitor stocks in DMSO, make 1 mM, 300 μM, 100 μM, 30 μM and 10 μM series of dilution in DMSO. • 5. Was the Flashplate 3 times with 300 μl PBS to remove unbound peptide substrate. • 6. Add the CDK2/CyclinE kinase: 200 ng per well, in a volume of 90 μl in kinase buffer (except for “no enzyme” control wells). • 7. Add 1 μl per well of inhibitor to test 10 μM, 3 μM, 1 μM, 0.3 μM and 0.1 μM in final concentration per 100 μl in each well. • 8. Shake gently the Flashplate 1 minute. • 9. Incubate 30 minutes on wet ice. • 10. Initiate the reaction with 10 μl kinase buffer containing 1 μM final cold ATP and 1 μCi final ^33P-ATP per well. • 11. Shake gently the Flashplate 1 minute. • 12. Incubate 45 minutes at RT (no shaking). • 13. Wash the Flashplate 3 times with 300 μl PBS
14. Count to detect the incorporation of ^33P-ATP by the kinase to the Rb phosphorylation site.

Sequence of CDK4/CyclinD1 (P11802 whole entry, species assumed): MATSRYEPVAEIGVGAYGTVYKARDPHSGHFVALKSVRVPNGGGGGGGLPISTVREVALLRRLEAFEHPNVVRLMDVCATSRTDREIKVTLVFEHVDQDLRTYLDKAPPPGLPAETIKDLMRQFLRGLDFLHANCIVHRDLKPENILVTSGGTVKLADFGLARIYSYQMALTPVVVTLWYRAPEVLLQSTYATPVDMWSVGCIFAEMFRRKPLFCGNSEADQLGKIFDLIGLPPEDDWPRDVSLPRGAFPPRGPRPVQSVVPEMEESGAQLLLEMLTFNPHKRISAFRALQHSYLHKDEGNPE
Sequence of CDK4/CyclinD1 (P24385 whole entry partner, species assumed): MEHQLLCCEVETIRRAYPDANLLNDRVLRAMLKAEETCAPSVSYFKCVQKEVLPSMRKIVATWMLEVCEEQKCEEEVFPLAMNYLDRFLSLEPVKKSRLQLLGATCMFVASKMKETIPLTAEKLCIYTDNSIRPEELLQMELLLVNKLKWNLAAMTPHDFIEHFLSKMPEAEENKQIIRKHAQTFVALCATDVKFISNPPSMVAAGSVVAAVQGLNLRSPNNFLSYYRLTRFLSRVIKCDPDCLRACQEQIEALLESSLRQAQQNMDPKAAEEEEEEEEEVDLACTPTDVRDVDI

| IC50 (CDK4/CyclinD1) [nM] | IC50 (CDK2/CyclinE) [nM] | inhibition at 10 µM (CDK4/CyclinD1) [%] | SMILES |
| --- | --- | --- | --- |
| 1300 | 600 |  | COC(=O)Nc1nc2cc(OS(=O)(=O)c3ccc(NCC4CCCO4)cc3)ccc2[nH]1 (stereo not shown) [Example 18, Methyl-5-(4-[1-tetrathydrofurylmethyl]aminophenyl-sulfonyloxy) benzimidazole-2-carbamate] |
|  | 900 | 70 | O=C(Nc1nc2cc(OS(=O)(=O)c3ccc(NC4CCCC4)cc3)ccc2[nH]1)NC1CCCCC1 [Example 58-b, 4-Cyclopentylamino-benzenesulfonic acid 2-(3-cyclohexyl-ureido)-1H-benzoimidazol-5-yl ester] |
| 2000 | 800 |  | Cc1cc(C)cc(Nc2nc3cc(OS(=O)(=O)c4ccc(NC5CCCC5)cc4)ccc3[nH]2)c1 [Example 70-c, 4-Cyclopentylamino-benzenesulfonic acid 2-(3,5-dimethyl-phenylamino)-1H-benzoimidazol-5-yl ester] |
| 840 | 300 |  | CCNc1ccc(S(=O)(=O)Oc2ccc3[nH]c(NC(=O)OC)nc3c2)cc1 [Example 6, Methyl-5-(4-ethylaminophenylsulfonyloxy) benzimidazole-2-carbamate] |
| 1600 | 100 |  | COCC(C)NC(=O)Nc1nc2cc(OS(=O)(=O)c3ccc(NCC4CCCO4)cc3)ccc2[nH]1 (stereo not shown) [Example 59-e, 4-[(Tetrahydro-furan-2-ylmethyl)-amino]-benzenesulfonic acid 2-[3-(2-methoxy-1-methyl-ethyl)-ureido]-1H-benzoimidazol-5-yl ester] |
| 770 | 530 |  | O=C(Nc1nc2cc(OS(=O)(=O)c3ccc(-n4ccnc4)cc3)ccc2[nH]1)Nc1ccccc1F [Example 36, 4-Imidazol-1-yl-benzenesulfonic acid 2-[3-(2-fluoro-phenyl)-ureido]-1H-benzoimidazol-5-yl ester] |
| 800 | 70 |  | COC(=O)Nc1nc2cc(OS(=O)(=O)c3c(F)cccc3F)ccc2[nH]1 [Example 62-h, 2,6-Difluoro-benzenesulfonic acid 2-methoxycarbonylamino-1H-benzoimidazol-5-yl ester] |
| 1800 | 60 |  | CCN1CCCC1CNC(=O)Nc1nc2cc(OS(=O)(=O)c3ccc(NCC4CCCO4)cc3)ccc2[nH]1 (stereo not shown) [Example 59-f, 4-[(Tetrahydro-furan-2-ylmethyl)-amino]-benzenesulfonic acid 2-[3-(1-ethyl-pyrrolidin-2-ylmethyl)-ureido]-1H-benzoimidazol-5-yl ester] |
| 3710 | 1090 |  | O=C(Nc1ccc(Cl)cc1)Nc1nc2cc(OS(=O)(=O)c3ccc(NC4CCCC4)cc3)ccc2[nH]1 [Example 40, 4-Cyclopentylamino-benzenesulfonic acid 2-[3-(4-chloro-phenyl)-ureido]-1H-benzoimidazol-5-yl ester] |
| 100 | 40 |  | O=C(NCCO)Nc1nc2cc(OS(=O)(=O)c3ccc(NC4CCCC4)cc3)ccc2[nH]1 [Example 58-e, 4-Cyclopentylamino-benzenesulfonic acid 2-[3-(2-hydroxy-ethyl)-ureido]-1H-benzoimidazol-5-yl ester] |
| 670 | 3000 |  | O=S(=O)(Oc1ccc2[nH]c(Nc3ccc(N4CCOCC4)cc3)nc2c1)c1ccc(NC2CCCC2)cc1 [Example 70-b, 4-Cyclopentylamino-benzenesulfonic acid 2-(4-morpholin-4-yl-phenylamino)-1H-benzoimidazol-5-yl ester] |
|  | 600 | 60 | O=C(Nc1nc2cc(OS(=O)(=O)c3ccc(NC4CCCC4)cc3)ccc2[nH]1)NC1CCCC1 [Example 58-c, 4-Cyclopentylamino-benzenesulfonic acid 2-(3-cyclopentyl-ureido)-1H-benzoimidazol-5-yl ester] |
| 500 | 9 |  | O=C(NCc1cccnc1)Nc1nc2cc(OS(=O)(=O)c3ccc(NC4CCCC4)cc3)ccc2[nH]1 [Example 58-j, 4-Cyclopentylamino-benzenesulfonic acid 2-(3-pyridin-3-ylmethyl-ureido)-1H-benzoimidazol-5-yl ester] |
| 4400 | 100 |  | O=C(NCc1ccccc1F)Nc1nc2cc(OS(=O)(=O)c3ccc(-n4ccnc4)cc3)ccc2[nH]1 [Example 57-h, 4-Imidazol-1-yl-benzenesulfonic acid 2-[3-(2-fluoro-benzyl)-ureido]-1H-benzoimidazol-5-yl ester] |
|  | 380 | 96 | O=C(Nc1ccccc1)Nc1nc2cc(OS(=O)(=O)c3ccc(NC4CCCC4)cc3)ccc2[nH]1 [Example 58-a, 4-Cyclopentylamino-benzenesulfonic acid 2-(3-phenyl-ureido)-1H-benzoimidazol-5-yl ester] |
| 930 | 500 |  | CCC(CO)Nc1ccc(S(=O)(=O)Oc2ccc3[nH]c(NC(=O)OC)nc3c2)cc1 (stereo not shown) [Example 11, Methyl-5-(4-[1-ethyl, 2-hydroxyethyl]aminophenylsulfonyloxy)benzimidazole-2-carbamate] |
| 1250 | 4300 |  | COc1cccc(NC(=O)Nc2nc3cc(OS(=O)(=O)c4ccc(NC5CCCC5)cc4)ccc3[nH]2)c1 [Example 38, 4-Cyclopentylamino-benzenesulfonic acid 2-[3-(3-methoxy-phenyl)-ureido]-1H-benzoimidazol-5-yl ester] |
| 100 | 8 |  | NC(=O)CNC(=O)Nc1nc2cc(OS(=O)(=O)c3ccc(NCC4CCCO4)cc3)ccc2[nH]1 (stereo not shown) [Example 59-a, 4-[(Tetrahydro-furan-2-ylmethyl)-amino]-benzenesulfonic acid 2-(3-carbamoylmethyl-ureido)-1H-benzoimidazol-5-yl ester] |
|  | 500 | 88 | O=C(Nc1ccc(F)cc1)Nc1nc2cc(OS(=O)(=O)c3ccc(-n4ccnc4)cc3)ccc2[nH]1 [Example 57-f, 4-Imidazol-1-yl-benzenesulfonic acid 2-[3-(4-fluoro-phenyl)-ureido]-1H-benzoimidazol-5-yl ester] |
| 310 | 40 |  | O=C(Nc1nc2cc(OS(=O)(=O)c3ccc(NC4CCCC4)cc3)ccc2[nH]1)N[C@H]1CC[C@H](O)CC1 [Example 58-x, 4-Cyclopentylamino-benzenesulfonic acid 2-[3-(4trans-hydroxy-cyclohexyl)-ureido]-1H-benzoimidazol-5-yl ester] |
|  | 1500 |  | CCOC(=O)c1cccc(Nc2nc3cc(OS(=O)(=O)c4ccc(NC5CCCC5)cc4)ccc3[nH]2)c1 [Example 70-g, 3-[5-(4-Cyclopentylamino-benzenesulfonyloxy)-1H-benzoimidazol-2-ylamino]-benzoic acid ethyl ester] |
|  | 5000 |  | COc1cc(Nc2nc3cc(OS(=O)(=O)c4ccc(NC5CCCC5)cc4)ccc3[nH]2)cc(C(F)(F)F)c1 [Example 70-f, 4-Cyclopentylamino-benzenesulfonic acid 2-(3-methoxy-5-trifluoromethyl-phenylamino)-1H-benzoimidazol-5-yl ester] |
|  | 1000 |  | COC(=O)Nc1nc2cc(OS(=O)(=O)c3ccc(OCC(=O)NCc4ccco4)cc3)ccc2[nH]1 [Example 66-c, 4-{[(furan-2-ylmethyl)-carbamoyl]-methoxy}-benzenesulfonic acid 2-methoxycarbonylamino-1H-benzoimidazol-5-yl ester] |
|  | 100 |  | O=C(NCc1ccccc1F)Nc1nc2cc(OS(=O)(=O)c3ccc(NC4CCCC4)cc3)ccc2[nH]1 [Example 58-h, 4-Cyclopentylamino-benzenesulfonic acid 2-[3-(2-fluoro-benzyl)-ureido]-1H-benzoimidazol-5-yl ester] |
|  | 1000 |  | COC(=O)Nc1nc2cc(OS(=O)(=O)c3ccc(OCC(=O)N4CCCC4)cc3)ccc2[nH]1 [Example 65, 4-(2-oxo-2-pyrrolidin-1-yl-ethoxy)-benzenesulfonic acid 2-methoxycarbonylamino-1H-benzoimidazol-5-yl-ester] |
|  | 1000 |  | COC(=O)Nc1nc2cc(OS(=O)(=O)c3ccccc3OC(F)(F)F)ccc2[nH]1 [Example 62-g, 2-Trifluoromethoxy-benzenesulfonic acid 2-methoxycarbonylamino-1H-benzoimidazol-5-yl ester] |
|  | 100 |  | O=C(NCc1cccnc1)Nc1nc2cc(OS(=O)(=O)c3ccc(-n4ccnc4)cc3)ccc2[nH]1 [Example 57-j, 4-Imidazol-1-yl-benzenesulfonic acid 2-(3-pyridin-3-ylmethyl-ureido)-1H-benzoimidazol-5-yl ester] |
|  | 130 |  | CN(C)CCNC(=O)Nc1nc2cc(OS(=O)(=O)c3ccc(NC4CCCC4)cc3)ccc2[nH]1 [Example 44, 4-Cyclopentylamino-benzenesulfonic acid 2-[3-(2-dimethylamino-ethyl)-ureido]-1H-benzoimidazol-5-yl ester] |
|  | 1500 |  | COC(=O)Nc1nc2cc(OS(=O)(=O)c3cccc(OC(F)(F)F)c3)ccc2[nH]1 [Example 62-f, 3-Trifluoromethoxy-benzenesulfonic acid 2-methoxycarbonylamino-1H-benzoimidazol-5-yl ester] |
